Experimental findings from patent US20020028836A1, “Potassium channel openers” (priority 2000, published 2002) are described below.

SMILES strings stand for the structures.

Assay [1] relates to primary cultured guinea-pig urinary bladder (GPB) cells. Put plainly: Membrane hyperpolarization (MHP) assay, DiBAC(4)3 / FLIPR. It is filed as cell-based. The following applies: Cavia porcellus; for EC50: concentration that elicits 50% of the maximal response for the test sample; for Emax: maximal steady-state hyperpolarization, normalized to response with 10 μM P1075 (100%). How it is done: Compounds were evaluated for potassium channel opening activity using primary cultured guinea-pig urinary bladder (GPB) cells.
For the preparation of urinary bladder smooth muscle cells, urinary bladders were removed from male guinea-pigs (Hartley, Charles River, Wilmington, Mass.) weighing 300-400 g and placed in ice-cold Ca^2+-free Krebs solution (Composition, mM: KCl, 2.7; KH2PO4, 1.5; NaCl, 75; Na2HPO4, 9.6; Na2HPO4.7H2O, 8; MgSO4, 2; glucose, 5; HEPES, 10; pH 7.4). Cells were isolated by enzymatic dissociation as previously described with minor modifications (Klockner, U. and Isenberg, G., Pflugers Arch. (1985), 405, 329-339), hereby incorporated by reference. The bladder was cut into small sections and incubated in 5 mL of the Kreb's solution containing I mg/mL collagenase (Sigma, St. Louis, Mo.) and 0.2 mg/mL pronase (Calbiochem, La Jolla, Calif.) with continuous stirring in a cell incubator for 30 minutes. The mixture was then centrifuged at 1300×g for 5 minutes, and the pellet resuspended in Dulbecco's PBS (GIBCO, Gaithersburg, Md.) and recentrifuged to remove residual enzyme. The cell pellet was resuspended in 5 mL growth media (composition: Dulbecco's modified Eagle's medium supplemented with 10% fetal bovine serum, 100 units/mL penicillin, 100 units/mL streptomycin and […] amphotericin B) and further dissociated by pipetting the suspension through a flame-polished Pasteur pipette and passing it through a polypropylene mesh membrane (Spectrum, Houston, Tex.). The cell density was adjusted to 100,000 cells/mL by resuspension in growth media. Cells were plated in clear-bottomed black 96-well plates (Packard) for membrane potential studies at a density of 20,000 cells/well and maintained in a cell incubator with 90% air: 10% CO2 until confluent. Cells were confirmed to be of smooth muscle type by cytoskeletal staining using a monoclonal mouse anti human-α-smooth muscle actin (Biomeda, Foster City, Calif.).
Functional activity at potassium channels was measured by evaluating changes in membrane potential using the bis-oxonol dye DiBAC(4) (Molecular Probes) in a 96-well cell-based kinetic assay system, Fluorescent Imaging Plate Reader (FLIPR) (K. S. Schroeder et al., J. Biomed. Screen., v. 1 pp. 75-81 (1996)), hereby incorporated by reference. DiBAC(4)3 is an anionic potentiometric probe which partitions between cells and extracellular solution in a membrane potential-dependent manner. With increasing membrane potential (for example, K^+ depolarization), the probe further partitions into the cell; this is measured as an increase in fluorescence due to dye interaction with intracellular lipids and proteins. Conversely, decreasing membrane potential (hyperpolarization by potassium channel openers) evokes a decrease in fluorescence.
Confluent guinea-pig urinary bladder cells cultured in black clear-bottomed 96-well plates were rinsed twice with […] assay buffer (composition, mM: HEPES, 20; NaCl, 120; KCl, 2; CaCl2, 2; MgCl2, 1; glucose, 5; pH 7.4 at 25° C.) containing 5 μM DiBAC(4)3 and incubated with […] of the buffer in a cell incubator for 30 minutes at 37° C. to ensure dye distribution across the membrane. After recording the baseline fluorescence for 5 minutes, the reference or test compounds, prepared at 10 times the concentration in the assay buffer, were added directly to the wells. Changes in fluorescence were monitored for an additional 25 minutes. Hyperpolarization responses were corrected for any background noise and were normalized to the response observed with 10 μM of the reference compound P1075 (assigned as 100%), a potent opener of smooth muscle KATP channels (Quast et al., Mol. Pharmacol., v. 43 pp. 474-481 (1993)), hereby incorporated by reference.
Routinely, five concentrations of P1075 or test compounds (log or half-log dilutions) were evaluated and the maximal steady-state hyperpolarization values (expressed as % relative to P1075) plotted as a function of concentration. […]

The subject of assay [2] is tissue strips obtained from Landrace pig bladders. Nature of the assay: Functional potassium channel opening activity in isolated bladder strips (field-stimulated twitch). The following applies: for Index: ED50 for P1075 divided by ED50 for the test agonist in a given tissue, averaged; for EC50 / Emax: Sus scrofa; for EC50: amount of agent necessary to cause 50% of the agent's maximal response, read-out: ED50 (the source's name); for Emax: maximal efficacy relative to P1075, field stimulation 0.05 Hz, 0.5 ms, 20 volts. The method in brief: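 Mucosa-free female Landrace pig bladder strips in Krebs Ringer bicarbonate (pH 7.4, 37° C., 0.004 mM propranolol), 1.0 g preload, field-stimulated at 0.05 Hz, 0.5 ms, 20 V for twitch. Cumulative concentration-response curves; maximal efficacy as % of P1075, ED50 fitted, potency index = P1075 ED50/test ED50 per tissue, averaged.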

Turning to `Cc1ccc(C(=O)NC(NC(=S)Nc2ccc(F)cc2F)C(F)(F)F)cc1` (stereo not shown) [Example 15, N-(1-{[(2,4-difluoroanilino)carbothioyl]amino}-2,2,2-trifluoroethyl)-4-methylbenzamide], in assay [1], the EC50 was determined as 0.55 µM and the Emax (in general, the greatest response seen or fitted, relative to the assay's reference) is 70%. For the same compound, in assay [2], the Index is reported as 0.005, the EC50 is 28 µM and the maximum response (Emax) was found to be 97%.
The like results for `Cc1ccc(C(=O)NC(NC(=S)Nc2c(F)cccc2F)C(F)(F)F)cc1` (stereo not shown) [Example 17, N-(1-{[(2,6-difluoroanilino)carbothioyl]amino}-2,2,2-trifluoroethyl)-4-methylbenzamide] were, in that order, 0.09 µM, 109%, 0.006, 12 µM and 100%.
The like results for `Cc1ccc(C(=O)NC(NC(=S)Nc2cccc(F)c2F)C(F)(F)F)cc1` (stereo not shown) [Example 18, N-(1-{[(2,3-difluoroanilino)carbothioyl]amino}-2,2,2-trifluoroethyl)-4-methylbenzamide] were, in that order, 0.09 µM, 123%, 0.020, 8 µM and 97%.
For `O=C(NC(NC(=S)Nc1ccccc1)C(F)(F)F)c1ccc(Cl)cc1` (stereo not shown) [Example 20, N-{1-[(anilinocarbothioyl)amino]-2,2,2-trifluoroethyl}-4-chlorobenzamide] the same measures were 0.09 µM, 85%, 0.011, 28 µM and 84%.
In assay [1], `O=C(NC(NC(=S)Nc1ccccc1F)C(F)(F)F)c1ccc(Cl)cc1` (stereo not shown) [Example 21, 4-chloro-N-(2,2,2-trifluoro-1-{[(2-fluoroanilino)carbothioyl]amino}ethyl)benzamide] came in with an EC50 of 0.09 µM and a maximal effect (Emax) of 96%. Moreover, in assay [2], the Index was 0.014, the EC50 was found to be 21 µM and the Emax was found to be 86%.
For `Cc1ccc(C(=O)NC(NC(=S)Nc2cccnc2)C(C)(C)C)cc1` (stereo not shown) [Example 22, N-(2,2-dimethyl-1-{[(3-pyridinylamino)carbothioyl]amino}propyl)-4-methylbenzamide] the same measures were 0.22 µM, 100%, 0.017, 5 µM and 100%.
For `Cc1ccc(C(=O)N[C@H](NC(=S)Nc2cccnc2)C(C)(C)C)cc1` [Example 23, N-((1R)-2,2-dimethyl-1-{[(3-pyridinylamino)carbothioyl]amino}propyl)-4-methylbenzamide] the same measures were 3.96 µM, 66%, 0.009, 16 µM and 100%.
For `Cc1ccc(C(=O)N[C@@H](NC(=S)Nc2cccnc2)C(C)(C)C)cc1` [Example 24, N-((1S)-2,2-dimethyl-1-{[(3-pyridinylamino)carbothioyl]amino}propyl)-4-methylbenzamide] the same measures were 0.08 µM, 93%, 0.007, 17 µM and 100%.
In assay [1], `Cc1ccc(C(=O)NC(NC(=S)Nc2cccc([N+](=O)[O-])c2)C(C)(C)C)cc1` (stereo not shown) [Example 25, N-(2,2-dimethyl-1-{[(3-nitroanilino)carbothioyl]amino}propyl)-4-methylbenzamide] returned an EC50 of 0.07 µM and a maximum response (Emax) of 103%. Also, in assay [2], the Index was 0.078, the EC50 worked out at 1 µM and the Emax came out at 100%.
For `CC(C)(C)C(NC(=O)c1ccc(Cl)cc1)NC(=S)Nc1cccnc1` (stereo not shown) [Example 27, 4-chloro-N-(2,2-dimethyl-1-{[(3-pyridinylamino)carbothioyl]amino}propyl)benzamide] the same measures were 0.1 µM, 80%, 0.009, 25 µM and 94%.
In assay [1], `CC(C)(C)C(NC(=O)c1ccccc1)NC(=S)Nc1cccnc1` (stereo not shown) [Example 28, N-(2,2-dimethyl-1-{[(3-pyridinylamino)carbothioyl]amino}propyl)benzamide] displayed an EC50 of 0.5 µM and a maximum response (Emax) of 77%. In assay [2], the Index turned out to be 0.004, the EC50 came to 42 µM and the Emax is 100%.
The like results for `Cc1ccc(C(=O)NC(NC(=S)Nc2cccc([N+](=O)[O-])c2)c2ccccc2)cc1` (stereo not shown) [Example 33, 4-methyl-N-[{[(3-nitroanilino)carbothioyl]amino}(phenyl)methyl]benzamide] were, in that order, 0.22 µM, 102%, 0.027, 12 µM and 80%.
In assay [1], `Cc1ccc(C(=O)NC(NC(=S)Nc2cccnc2)c2ccccc2)cc1` (stereo not shown) [Example 34, 4-methyl-N-(phenyl{[(3-pyridinylamino)carbothioyl]amino}methyl)benzamide] had an EC50 of 0.5 µM and a maximal effect (Emax) of 80%. Also, in assay [2], the Index is 0.003, the EC50 amounted to 23 µM and the Emax came to 99%.
For `Cc1ccc(C(=O)NC(NC(=O)Nc2cccnc2)C(Cl)(Cl)Cl)cc1` (stereo not shown) [Example 38, 4-methyl-N-(2,2,2-trichloro-1-{[(3-pyridinylamino)carbonyl]amino}ethyl)benzamide] the same measures were 0.1 µM, 100%, 0.015, 7 µM and 98%.
For `O=C(Nc1cccnc1)NC(NC(=O)c1ccccc1)C(Cl)(Cl)Cl` (stereo not shown) [Example 40, N-(2,2,2-trichloro-1-{[(3-pyridinylamino)carbonyl]amino}ethyl)benzamide] the same measures were 0.12 µM, 100%, 0.007, 15 µM and 100%.
In assay [1], `Cc1ccc(C(=O)NC(NC(=NC#N)Nc2cccnc2)C(Cl)(Cl)Cl)cc1` (stereo not shown) [Example 44, 4-methyl-N-(2,2,2-trichloro-1-{[(cyanoimino)(3-pyridinylamino)methyl]amino}ethyl)benzamide] displayed an EC50 of 0.04 µM and an Emax of 103%. For the same compound, in assay [2], the Index was determined as 0.040, the EC50 came out at 2 µM and the Emax worked out at 95%.
The like results for `Cc1ccc(C(=O)NC(NC(=NC#N)Nc2ccccc2F)C(Cl)(Cl)Cl)cc1` (stereo not shown) [Example 47, 4-methyl-N-(2,2,2-trichloro-1-{[(cyanoimino)(2-fluoroanilino)methyl]amino}ethyl)benzamide] were, in that order, 0.06 µM, 98%, 0.019, 36 µM and 67%.
